Results reported in patent US4940705A, “N-substituted derivatives of 1-desoxynojirimycin and 1-desoxymannonojirimycin and pharmaceutical use” (Bayer Aktiengesellschaft, priority 1987, dated 1990).
In brackets after ≈: the same amount, converted by molar mass.

Columns and labels:
Visna virus = Visna virus test: inhibition of virus-induced cytopathic effect / virus multiplication in infected cell cultures; type: cell-based; settings: Visna-maedi virus, 168 h, sheep fibroblast cells, 7 days at 37° C., Table 1, read-out: 2 MIC (minimum concentration at which an inhibition of virus multiplication was still observed)
Protocol: In cell cultures which are infected with Visna virus, pronounced virus-induced, cytopathic effects appear 5 to 10 days after infection. By treatment of the infected cell cultures with the compounds according to the invention, the appearance of these cytopathic effects could be prevented.
(§1) The Visna virus test was carried out by the method of O. Narayan et al., Journal of Infectious Diseases 135, 5, 1977, 800-806. For this, the compounds according to the invention were diluted to non-cytotoxic concentrations in culture medium in 96-well microtiter plates. Subsequently, sheep fibroblast cells (5×10^4 cells per well) in production medium were added to each well. Each well then contained 50 μl of a Visna virus solution having a titre of about 2.5×10^4TCID50 (TCID=tissue culture infectious dose). This virus dose corresponds to an MOI (multiplicity of infection) of about 0.05.
The infected and treated cells and the controlled cells were incubated for 7 days at 37° C. and 5% CO2.
On appearance of the virus-induced cytopathogenic effect in the untreated virus control, the cultures were fixed using formalin and subsequently stained with a Giemsa solution.
(§2) Herein, MCC denotes cytotoxicity and MIC denotes the minimum concentration at which an inhibition of virus multiplication was still observed.

Cytotoxicity (MCC) = type: cell-based; settings: sheep, sheep fibroblast cells; MCC denotes cytotoxicity; Table 1
Protocol: as §1, §2

O=C(CCN1C[C@@H](O)[C@@H](O)[C@H](O)[C@H]1CO)N1CCN(c2ccc(F)cc2)CC1 [Example 82, 3-(1,5-Didesoxy-1,5-imino-D-mannit-N-yl)-propionyl-1-(4-p-fluorophenyl)piperazine]
MIC (Visna virus): 500 µg/mL (≈ 1260 µM)
MCC (Cytotoxicity (MCC)): > 1000 µg/mL

Cc1ccc(N2CCN(C(=O)CCN3C[C@H](O)[C@@H](O)[C@H](O)[C@H]3CO)CC2)cc1 [Example 87, 3-(1,5-Didesoxy-1,5-imino-D-glucit-N-yl)-propionyl-1-(4-tolyl)piperazine]
MIC (Visna virus): 250 µg/mL (≈ 635 µM)
MCC (Cytotoxicity (MCC)): > 1000 µg/mL

O=C(CCN1C[C@H](O)[C@@H](O)[C@H](O)[C@H]1CO)NCc1ccc(C(F)(F)F)cc1 [Example 89, N-(4-Trifluoromethylbenzyl)-3-(1,5-didesoxy-1,5-imino-D-glucit-N-yl)propionamide]
MIC (Visna virus): 500 µg/mL (≈ 1270 µM)
MCC (Cytotoxicity (MCC)): 1000 µg/mL

O=C(CCN1C[C@H](O)[C@@H](O)[C@H](O)[C@H]1CO)NCC(=O)c1ccccc1 [Example 90]
MIC (Visna virus): 250 µg/mL (≈ 709 µM)
MCC (Cytotoxicity (MCC)): 1000 µg/mL

O=C(CCN1C[C@H](O)[C@@H](O)[C@H](O)[C@H]1CO)N1CCN(c2ccccc2F)CC1 [Example 92, 3-(1,5-Didesoxy-1,5-imino-D-glucit-N-yl)propionyl-1-(4-2-fluorophenyl)piperazine]
MIC (Visna virus): 250 µg/mL (≈ 629 µM)
MCC (Cytotoxicity (MCC)): > 1000 µg/mL

Cc1cccc(N2CCN(C(=O)CCN3C[C@H](O)[C@@H](O)[C@H](O)[C@H]3CO)CC2)c1 [Example 93, 3-(1,5-Didesoxy-1,5-imino-D-glucit-N-yl)propionyl-1-(3-methylphenyl)piperazine]
MIC (Visna virus): 500 µg/mL (≈ 1270 µM)
MCC (Cytotoxicity (MCC)): > 1000 µg/mL

O=C(CCN1C[C@H](O)[C@@H](O)[C@H](O)[C@H]1CO)N1CCN(c2ccccc2[N+](=O)[O-])CC1 [Example 94, 3-(1,5-Didesoxy-1,5-imino-D-glucit-N-yl)propionyl-1-(4-2-nitrophenyl)piperazine]
MIC (Visna virus): 500 µg/mL (≈ 1180 µM)
MCC (Cytotoxicity (MCC)): > 1000 µg/mL

Cc1ccccc1N1CCN(C(=O)CCN2C[C@H](O)[C@@H](O)[C@H](O)[C@H]2CO)CC1 [Example 96, 3-(1,5-Didesoxy-1,5-imino-D-glucit-N-yl)propionyl-1-(4-2-methylphenyl)piperazine]
MIC (Visna virus): 500 µg/mL (≈ 1270 µM)
MCC (Cytotoxicity (MCC)): > 1000 µg/mL

O=C(CCN1C[C@H](O)[C@@H](O)[C@H](O)[C@H]1CO)N1CCN(c2ncccn2)CC1 [Example 99, 3-(1,5-Didesoxy-1,5-imino-D-glucit-N-yl)-propionyl-1-(4-[2-pyrimidyl])piperazine]
MIC (Visna virus): 125 µg/mL (≈ 328 µM)
MCC (Cytotoxicity (MCC)): > 1000 µg/mL

O=C(CCN1C[C@H](O)[C@@H](O)[C@H](O)[C@H]1CO)N1CCSCC1 [Example 100, 3-(1,5-Didesoxy-1,5-imino-D-glucit-N-yl)propionyl-1-thiomorpholide]
MIC (Visna virus): 500 µg/mL (≈ 1560 µM)
MCC (Cytotoxicity (MCC)): > 1000 µg/mL

O=C(CCN1C[C@H](O)[C@@H](O)[C@H](O)[C@H]1CO)NCc1cccs1 [Example 101, N-[(Thiophen-2-yl)-methyl]-3-(1,5-didesoxy-1,5-imino-D-glucit-N-yl)propionamide]
MIC (Visna virus): 125 µg/mL (≈ 378 µM)
MCC (Cytotoxicity (MCC)): 1000 µg/mL

C[C@H](NC(=O)CCN1C[C@H](O)[C@@H](O)[C@H](O)[C@H]1CO)c1ccccc1 [Example 102, N-[(1S)-1-Phenethyl]-3-(1,5-didesoxy-1,5-imino-D-glucit-N-yl)propionamide]
MIC (Visna virus): 125 µg/mL (≈ 369 µM)
MCC (Cytotoxicity (MCC)): > 1000 µg/mL

C[C@@H](NC(=O)CCN1C[C@H](O)[C@@H](O)[C@H](O)[C@H]1CO)c1ccccc1 [Example 103]
MIC (Visna virus): 125 µg/mL (≈ 369 µM)
MCC (Cytotoxicity (MCC)): > 1000 µg/mL

CCCCNC(=O)CCN1C[C@H](O)[C@@H](O)[C@H](O)[C@H]1CO [Example 104, N-Butyl-3-(1,5-didesoxy-1,5-imino-D-glucit-N-yl)propionamide]
MIC (Visna virus): 250 µg/mL (≈ 861 µM)
MCC (Cytotoxicity (MCC)): > 1000 µg/mL

O=C(O)CCCN1C[C@H](O)[C@@H](O)[C@H](O)[C@H]1CO [Example 107, 4-(1,5-Didesoxy-1,5-imino-D-glucit-N-yl)butanoic acid]
MIC (Visna virus): 500 µg/mL (≈ 2010 µM)
MCC (Cytotoxicity (MCC)): > 1000 µg/mL
